Test results: US11034650B2, “Compounds useful for treating a Mannheimia haemolytica or Histophilus somni infection” (Intervet Inc., priority 2016, dated 2021)
≈ marks a conversion by molar mass, not a printed value.

Experiments:
Assay type in all cases: cell-based
[1] = tested on: Mannheimia haemolytica MH 12587 (1071, BRD field isolate, macrolide-resistance: erm+, E+); experiment: MIC, broth-microdilution (CLSI VET01-A4), strain MH 12587; conditions: Mannheimia haemolytica strain MH 12587, broth-microdilution; unit assumed
Outline: (§1)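 Compounds were serially diluted twofold in microdilution trays. Growth was judged by eye, and the MIC was the lowest concentration showing no turbidity. Results were interpreted per CLSI VET01-S3.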

[2] = tested on: Mannheimia haemolytica MH 6374 (ATCC 33396, reference strain); experiment: MIC, broth-microdilution (CLSI VET01-A4), strain MH 6374; conditions: Mannheimia haemolytica strain MH 6374, broth-microdilution; unit assumed
Outline: as §1

[3] = tested on: Pasteurella multocida PM 12080 (IV102277-0093, BRD field isolate); experiment: MIC, broth-microdilution (CLSI VET01-A4), strain PM 12080; conditions: Pasteurella multocida strain PM 12080, broth-microdilution; unit assumed
Outline: as §1

[4] = tested on: Pasteurella multocida PM 10775 (080130003051, BRD field isolate); experiment: MIC, broth-microdilution (CLSI VET01-A4), strain PM 10775; conditions: Pasteurella multocida strain PM 10775, broth-microdilution; unit assumed
Outline: as §1

[5] = tested on: Mannheimia haemolytica MH 13093 (XB0472-6014.1, BRD field isolate); experiment: MIC, broth-microdilution (CLSI VET01-A4), strain MH 13093; conditions: Mannheimia haemolytica strain MH 13093, broth-microdilution; unit assumed
Outline: as §1

[6] = tested on: Pasteurella multocida PM 6267 (P 2225 (L386), reference strain, mouse infection strain); experiment: MIC, broth-microdilution (CLSI VET01-A4), strain PM 6267; conditions: Pasteurella multocida strain PM 6267, broth-microdilution; unit assumed
Outline: as §1

[7] = tested on: Mannheimia haemolytica MH 10720 (154, BRD field isolate); experiment: MIC, broth-microdilution (CLSI VET01-A4), strain MH 10720; conditions: Mannheimia haemolytica strain MH 10720, broth-microdilution; unit assumed
Outline: as §1

[8] = tested on: Mannheimia haemolytica MH 6357 (M7/2, reference strain, cattle infection strain); experiment: MIC, broth-microdilution (CLSI VET01-A4), strain MH 6357; conditions: Mannheimia haemolytica strain MH 6357, broth-microdilution; unit assumed
Outline: as §1

[9] = tested on: Mannheimia haemolytica MH 13065 (XB0446-6003.9, BRD field isolate); experiment: MIC, broth-microdilution (CLSI VET01-A4), strain MH 13065; conditions: Mannheimia haemolytica strain MH 13065, broth-microdilution; unit assumed
Outline: as §1

[10] = tested on: Pasteurella multocida PM 6391 (ATCC 43137, reference strain); experiment: MIC, broth-microdilution (CLSI VET01-A4), strain PM 6391; conditions: Pasteurella multocida strain PM 6391, broth-microdilution; unit assumed
Method: For example, representative compounds were tested against ***, Mannheimia haemolytica and Pasteurella multocida, using the conventional broth-dilution assay.
The Minimum inhibitory concentrations (MIC) of compounds according to the invention for a number of veterinary bacterial pathogens were determined by the broth-microdilution method according to CLSI document VET01-A4.
Microdilution trays containing a doubling dilution series of the test compound were used for the tests. The MIC results were interpreted according to the CLSI documents VET01-S3. The lowest concentration of compound at which no visible growth (i.e. no turbidity) detected by the unaided eye was recorded as the MIC.

| Compound | MIC MH 12587 [1] | MIC MH 6374 [2] | MIC PM 12080 [3] | MIC PM 10775 [4] | MIC MH 13093 [5] | MIC PM 6267 [6] | MIC MH 10720 [7] | MIC MH 6357 [8] | MIC MH 13065 [9] | MIC PM 6391 [10] |
| --- | --- | --- | --- | --- | --- | --- | --- | --- | --- | --- |
| C=CCNCc1ccc(C#Cc2ccc(C(=O)N[C@H](C(=O)NO)C(C)(C)SC)cc2)cc1 [C.236] | 1.6 µg/mL (≈ 3.54 µM) | 0.8 µg/mL (≈ 1.77 µM) | 0.4 µg/mL (≈ 0.886 µM) | ≤ 0.1 µg/mL | 0.8 µg/mL (≈ 1.77 µM) | ≤ 0.1 µg/mL | ≤ 0.1 µg/mL | 0.8 µg/mL (≈ 1.77 µM) | 0.8 µg/mL (≈ 1.77 µM) | 0.4 µg/mL (≈ 0.886 µM) |
| COCCNCc1ccc(C#Cc2ccc(C(=O)N[C@H](C(=O)NO)C(C)(C)SC)cc2)cc1 [C.237] | 3.1 µg/mL (≈ 6.6 µM) | 1.6 µg/mL (≈ 3.41 µM) | 0.4 µg/mL (≈ 0.852 µM) | ≤ 0.1 µg/mL | 1.6 µg/mL (≈ 3.41 µM) | 0.2 µg/mL (≈ 0.426 µM) | 0.2 µg/mL (≈ 0.426 µM) | 1.6 µg/mL (≈ 3.41 µM) | 1.6 µg/mL (≈ 3.41 µM) | 0.8 µg/mL (≈ 1.7 µM) |
| CC(C)([C@H](NC(=O)c1ccc(C#Cc2ccc(CNC3CC3)cc2)cc1)C(=O)NO)S(C)(=O)=O [C.255] | 1.6 µg/mL (≈ 3.31 µM) | 0.4 µg/mL (≈ 0.827 µM) | ≤ 0.1 µg/mL | ≤ 0.1 µg/mL | 0.8 µg/mL (≈ 1.65 µM) | ≤ 0.1 µg/mL | ≤ 0.1 µg/mL | 0.8 µg/mL (≈ 1.65 µM) | 0.4 µg/mL (≈ 0.827 µM) | ≤ 0.1 µg/mL |
| C=CCNCc1ccc(C#Cc2ccc(C(=O)N[C@H](C(=O)NO)C(C)(C)S(C)(=O)=O)cc2)cc1 [C.256] | 1.6 µg/mL (≈ 3.31 µM) | 0.8 µg/mL (≈ 1.65 µM) | ≤ 0.1 µg/mL | ≤ 0.1 µg/mL | 0.8 µg/mL (≈ 1.65 µM) | ≤ 0.1 µg/mL | ≤ 0.1 µg/mL | 1.6 µg/mL (≈ 3.31 µM) | 0.8 µg/mL (≈ 1.65 µM) | ≤ 0.1 µg/mL |
| CC(C)([C@H](NC(=O)c1ccc(C#Cc2ccc(CNCc3ccccc3)cc2)cc1)C(=O)NO)S(C)(=O)=O [C.259] | 0.8 µg/mL (≈ 1.5 µM) | 0.4 µg/mL (≈ 0.75 µM) | ≤ 0.1 µg/mL | ≤ 0.1 µg/mL | 0.8 µg/mL (≈ 1.5 µM) | ≤ 0.1 µg/mL | ≤ 0.1 µg/mL | 0.8 µg/mL (≈ 1.5 µM) | 0.4 µg/mL (≈ 0.75 µM) | ≤ 0.1 µg/mL |
| CC(C)([C@H](NC(=O)c1ccc(C#Cc2ccc(CNCc3ccncc3)cc2)cc1)C(=O)NO)S(C)(=O)=O [C.261] | 0.8 µg/mL (≈ 1.5 µM) | 0.4 µg/mL (≈ 0.748 µM) | ≤ 0.1 µg/mL | ≤ 0.1 µg/mL | 0.4 µg/mL (≈ 0.748 µM) | ≤ 0.1 µg/mL | ≤ 0.1 µg/mL | 0.4 µg/mL (≈ 0.748 µM) | 0.4 µg/mL (≈ 0.748 µM) | ≤ 0.1 µg/mL |
| CC(C)([C@H](NC(=O)c1ccc(C#Cc2ccc(CNCc3cccnc3)cc2)cc1)C(=O)NO)S(C)(=O)=O [C.267] | 1.6 µg/mL (≈ 2.99 µM) | 0.4 µg/mL (≈ 0.748 µM) | ≤ 0.1 µg/mL | ≤ 0.1 µg/mL | 0.8 µg/mL (≈ 1.5 µM) | ≤ 0.1 µg/mL | ≤ 0.1 µg/mL | 0.8 µg/mL (≈ 1.5 µM) | 0.8 µg/mL (≈ 1.5 µM) | ≤ 0.1 µg/mL |
| CC[C@H](C)[C@H](NC(=O)c1ccc(C#Cc2ccc(CNCc3ccccc3)cc2)cc1)C(=O)NO [Compound 126] | 1.6 µg/mL (≈ 3.41 µM) | 1.6 µg/mL (≈ 3.41 µM) | 0.8 µg/mL (≈ 1.7 µM) | ≤ 0.1 µg/mL | 1.6 µg/mL (≈ 3.41 µM) | 0.4 µg/mL (≈ 0.852 µM) | 0.4 µg/mL (≈ 0.852 µM) | 3.1 µg/mL (≈ 6.6 µM) | 1.6 µg/mL (≈ 3.41 µM) |  |
| CC[C@H](C)[C@H](NC(=O)c1ccc(C#Cc2ccc(CN(C)Cc3ccccc3)cc2)cc1)C(=O)NO [Compound 127] | 25 µg/mL (≈ 51.7 µM) | 6.3 µg/mL (≈ 13 µM) | 1.6 µg/mL (≈ 3.31 µM) | 0.4 µg/mL (≈ 0.827 µM) | 12.5 µg/mL (≈ 25.8 µM) | 1.6 µg/mL (≈ 3.31 µM) | 1.6 µg/mL (≈ 3.31 µM) | 3.1 µg/mL (≈ 6.41 µM) | 6.3 µg/mL (≈ 13 µM) |  |
| CC[C@H](C)[C@H](NC(=O)c1ccc(C#Cc2ccc(CNCc3ccc(Cl)cc3)cc2)cc1)C(=O)NO [Compound 128] | 12.5 µg/mL (≈ 24.8 µM) | 3.1 µg/mL (≈ 6.15 µM) | 3.1 µg/mL (≈ 6.15 µM) | 0.4 µg/mL (≈ 0.794 µM) | 6.3 µg/mL (≈ 12.5 µM) | 3.1 µg/mL (≈ 6.15 µM) | 0.8 µg/mL (≈ 1.59 µM) | 3.1 µg/mL (≈ 6.15 µM) | 3.1 µg/mL (≈ 6.15 µM) |  |
| CC[C@H](C)[C@H](NC(=O)c1ccc(C#Cc2ccc(CNCc3ccc(OC)cc3)cc2)cc1)C(=O)NO [Compound 129] | 3.1 µg/mL (≈ 6.2 µM) | 1.6 µg/mL (≈ 3.2 µM) | 1.6 µg/mL (≈ 3.2 µM) | ≤ 0.1 µg/mL | 3.1 µg/mL (≈ 6.2 µM) | 0.8 µg/mL (≈ 1.6 µM) | 0.4 µg/mL (≈ 0.801 µM) | 1.6 µg/mL (≈ 3.2 µM) | 1.6 µg/mL (≈ 3.2 µM) |  |
